System: mixtures of weeds: Cockspur (Echinochloa crus-galli), Fat-hen (Chenopodium album), Smartweed (Polygonum persicaria)
Assay: Field trial: adjuvant effect on Glyphosate herbicidal activity on mixed weed plots
Format: in vivo
Conditions: glyphosate 1080 g(a.e.).ha^-1, adjuvant 540 g.ha^-1 (2:1)
Method: This Example tests the effect of adjuvants on Glyphosate herbicidal activity under field conditions. The herbicide was applied to test plots of weeds at a rate of 1080 g(a.e.).ha^−1 (350 l.ha^−1 of spray containing 3.086 g.l^−1 a.e.) with a weight ratio of active to adjuvant of 2:1=540 g(adjuvant).ha^−1. Spray plots were treated with the herbicide formulations, one of each of four adjuvants of the invention (SE1, SE2, SE3, and SE4) a fatty amine ethoxylate (FAE1) for comparison, or left untreated as controls (no weed control). The spray plots were in a completely randomised block design with 3 replicates of 3×5 m plots. the sprayed plots were sprayed using a compressed-air AZO sprayer at a pressure of 2.5 bar, equipped with Teejet XR80015VS nozzles. During this trial, it rained for about 15 minutes about 2 hours after spraying, giving a good indication of the rainfastness off the formulations tested.
The test plots used mixtures of the following weeds at the 2 to 4 leaf stage:
The results of spraying were evaluated by visual comparison with untreated control blocks 12, 20 and 35 days after treatment (DAT), assessing chlorosis (chlor) and growth inhibition (inhib) as percentages with 0=no effect and 100=complete kill as compared with the untreated controls.

[1] = 12 DAT, 0=no effect, 100=complete kill

Compound | inhib (%) growth inhibition (12 DAT) | chlor (%) chlorosis [1] | chlor (%) chlorosis (20 DAT) | inhib (%) growth inhibition (20 DAT) | chlor (%) chlorosis (35 DAT) | inhib (%) growth inhibition (35 DAT)
1-[Bis-(2-hydroxyethyl)-amino]-2-hydroxypropane-3-(stearyl 25-ethoxylate) [SE4] | 62% | 63% | 75% | 75% | 65% | 68%
1-[Diethylamino]-2-hydroxypropane-3-(Alc1 15-ethoxylate) [SE1] | 67% | 62% | 77% | 78% | 78% | 78%
CCCCCCCCCCCCCCCCCCOCCOCCOCCOCCOCCOCCOCCOCCOCCOCCOCCOCCOCCOCCOCCOCCOCCOCCOCCOCCOCCOCCOCCOCCOCCOCC(O)CN(CC)CC (stereo not drawn) [SE3, 1-diethylamino-2-hydroxypropane-3-(stearyl 25-ethoxylate)] | 63% | 62% | 72% | 72% | 68% | 75%
